The record followed here is PubChem BioAssay AID192 (DTP/NCI, 2004).

This experiment deals with BDF1 mice, B16 melanoma ip, median survival T/C. Put plainly: NCI In Vivo Anticancer Drug Screen. Data for tumor model B16 Melanoma (intraperitoneal) in B6D2F1 (BDF1) mice. The conditions noted are these: endpoint: median survival time, higher = longer survival. How it is done: The antitumor activity of compounds was measured in mice bearing transplantable tumors. Survival or tumor size were measured and the results are expressed as the measurement made in the treated group (T) divided by the measurement made in the vehicle treated control group (C). The tumor model used in this assay is B16 Melanoma (intraperitoneal) in B6D2F1 (BDF1) mice

The mark [1] stands for this setting: dose: 100.0 mg/kg/injection, schedule: Q01DX009 (ip), vehicle: Klucel (hydroxypropylcellulose) (HPC).
Where [2] appears, read: dose: 200.0 mg/kg/injection, schedule: Q01DX009 (ip), vehicle: Klucel (hydroxypropylcellulose) (HPC).
The mark [3] stands for this setting: dose: 400.0 mg/kg/injection, schedule: Q01DX009 (ip), vehicle: Klucel (hydroxypropylcellulose) (HPC).
Where [4] appears, read: dose: 25.0 mg/kg/injection, schedule: Q01DX009 (ip), vehicle: saline with Tween-80.
Where [5] appears, read: dose: 50.0 mg/kg/injection, schedule: Q01DX009 (ip), vehicle: saline with Tween-80.
[6] abbreviates: dose: 100.0 mg/kg/injection, schedule: Q01DX009 (ip), vehicle: saline with Tween-80.
Where [7] appears, read: dose: 200.0 mg/kg/injection, schedule: Q01DX009 (ip), vehicle: saline with Tween-80.
The mark [8] stands for this setting: dose: 100.0 mg/kg/injection, schedule: Q04DX003 (ip), vehicle: Klucel (hydroxypropylcellulose) (HPC).
Where [9] appears, read: dose: 200.0 mg/kg/injection, schedule: Q04DX003 (ip), vehicle: Klucel (hydroxypropylcellulose) (HPC).
Setting [10] is: dose: 400.0 mg/kg/injection, schedule: Q04DX003 (ip), vehicle: Klucel (hydroxypropylcellulose) (HPC).

“And” between values parts separate entries of the source, which are not always exact repeats. Equal values may be shown once. Toxic doses and inconclusive results are not listed. Numbered stars: 1 amine (or outer) side, 2 acyl side, 3 side chain; on linkers, the order of the positions; unused ones are H or OH. Peptide text beside a SMILES is read from it. ξ: configuration not given here. ξγGlu = O=C(O)C(CCC(=O)[*:2])N[*:1]

`CC(=O)O[C@H]1C(=O)[C@@]2(C)[C@H]([C@H](OC(=O)c3ccccc3)[C@]3(O)C[C@H](OC(=O)[C@H](O)[C@@H](NC(=O)c4ccccc4)c4ccccc4)C(C)=C1C3(C)C)[C@]1(OC(C)=O)CO[C@@H]1C[C@@H]2O`: the T/C was 100 % of control (dose: 0.66 mg/kg/injection, schedule: Q01DX005 (iv), vehicle: other); 160 % of control (dose: 0.66 mg/kg/injection, schedule: Q08HX018 (ip), vehicle: Klucel (hydroxypropylcellulose) (HPC)); 110 % of control (dose: 0.66 mg/kg/injection, schedule: Q08HX018 (ip), vehicle: other); 183 % of control (dose: 0.98 mg/kg/injection, schedule: Q08HX018 (ip), vehicle: Klucel (hydroxypropylcellulose) (HPC)); 153 % of control and 181 % of control (dose: 1.25 mg/kg/injection, schedule: Q01DX009 (ip), vehicle: Klucel (hydroxypropylcellulose) (HPC)); 91 % of control (dose: 1.25 mg/kg/injection, schedule: Q01DX009 (oral), vehicle: Klucel (hydroxypropylcellulose) (HPC)). In addition, the T/C is, setting by setting: (dose: 1.32 mg/kg/injection, schedule: Q01DX009 (ip), vehicle: Klucel (hydroxypropylcellulose) (HPC)) 164 % of control; (dose: 1.48 mg/kg/injection, schedule: Q01DX005 (iv), vehicle: other) 105 % of control; (dose: 1.48 mg/kg/injection, schedule: Q08HX018 (ip), vehicle: Klucel (hydroxypropylcellulose) (HPC)) 207 % of control; (dose: 1.48 mg/kg/injection, schedule: Q08HX018 (ip), vehicle: other) 174 % of control; (dose: 1.98 mg/kg/injection, schedule: Q01DX009 (ip), vehicle: Klucel (hydroxypropylcellulose) (HPC)) 183 % of control and 200 % of control; (dose: 2.22 mg/kg/injection, schedule: Q08HX018 (ip), vehicle: Klucel (hydroxypropylcellulose) (HPC)) 187 % of control. In addition, the T/C is 193 % of control (dose: 2.22 mg/kg/injection, schedule: Q08HX018 (ip), vehicle: other); 106 % of control (dose: 2.5 mg/kg/injection, schedule: Q01DX009 (ip), vehicle: other); 116 % of control (dose: 2.5 mg/kg/injection, schedule: Q01DX009 (oral), vehicle: Klucel (hydroxypropylcellulose) (HPC)); 206 % of control and 217 % of control (dose: 2.96 mg/kg/injection, schedule: Q01DX009 (ip), vehicle: Klucel (hydroxypropylcellulose) (HPC)); 95 % of control (dose: 3.33 mg/kg/injection, schedule: Q01DX005 (iv), vehicle: other); 198 % of control (dose: 3.33 mg/kg/injection, schedule: Q08HX018 (ip), vehicle: Klucel (hydroxypropylcellulose) (HPC)). Besides, the T/C runs as follows: (dose: 4.44 mg/kg/injection, schedule: Q01DX009 (ip), vehicle: Klucel (hydroxypropylcellulose) (HPC)) 194 % of control and 231 % of control; (dose: 5.0 mg/kg/injection, schedule: Q08HX018 (ip), vehicle: Klucel (hydroxypropylcellulose) (HPC)) 240 % of control; (dose: 5.0 mg/kg/injection, schedule: Q08HX018 (ip), vehicle: other) 150 % of control and 208 % of control; (dose: 7.5 mg/kg/injection, schedule: Q01DX005 (iv), vehicle: other) 100 % of control; (dose: 7.5 mg/kg/injection, schedule: Q08HX018 (ip), vehicle: Klucel (hydroxypropylcellulose) (HPC)) 122 % of control; (dose: 11.2 mg/kg/injection, schedule: Q01DX005 (iv), vehicle: other) 108 % of control. Also, the T/C reads like this: (dose: 20.0 mg/kg/injection, schedule: Q01DX009 (oral), vehicle: Klucel (hydroxypropylcellulose) (HPC)) 108 % of control; (dose: 40.0 mg/kg/injection, schedule: Q01DX009 (oral), vehicle: Klucel (hydroxypropylcellulose) (HPC)) 106 % of control.

As to `CCOc1ccc(/C=N/NS(=O)(=O)c2ccc(C)cc2)cc1`, the T/C is 96 % of control under setting [1], 90 % of control under setting [2] and 90 % of control under setting [3].

For the compound `CS(=O)(=O)Nc1ccc(C(=O)O)cc1`, the T/C under setting [1] was 100 % of control and the T/C under setting [2] was 102 % of control.

Regarding `CCCCNC(=S)N/N=C/c1ccccn1`, the T/C by setting is: under setting [4], 102 % of control; under setting [5], 99 % of control; under setting [6], 104 % of control.

For `CC(C)=CC(=O)OCC[N+](C)(C)C`, the T/C (dose: 1.56 mg/kg/injection, schedule: Q01DX009 (ip), vehicle: saline) is 114 % of control; the T/C (dose: 3.12 mg/kg/injection, schedule: Q01DX009 (ip), vehicle: saline) is 112 % of control; the T/C (dose: 6.25 mg/kg/injection, schedule: Q01DX009 (ip), vehicle: saline) was 104 % of control; the T/C (dose: 12.5 mg/kg/injection, schedule: Q01DX009 (ip), vehicle: saline) was 102 % of control; the T/C (dose: 25.0 mg/kg/injection, schedule: Q01DX009 (ip), vehicle: saline) is 101 % of control.

In the case of `C1CC[N-]CC1.C1CC[N-]CC1.[Cl][Rh]([Cl])[Cl]`, the T/C was 100 % of control (dose: 12.5 mg/kg/injection, schedule: Q01DX009 (ip), vehicle: saline with Tween-80); 95 % of control under setting [4]; 102 % of control under setting [5]; 94 % of control under setting [6]; 96 % of control under setting [7].

Take `CN(C)c1ccc(C=Nc2ccc3c(c2)Cc2ccccc2-3)cc1`: the T/C under setting [1] was 106 % of control, the T/C under setting [2] is 93 % of control and the T/C under setting [3] was 90 % of control.

With `CCC(C)c1ccc(O)c(C(C)CC)c1` (stereo unspecified), the T/C was 123 % of control (dose: 88.0 mg/kg/injection, schedule: Q01DX009 (ip), vehicle: saline with Tween-80); 108 % of control (dose: 133.0 mg/kg/injection, schedule: Q01DX009 (ip), vehicle: saline with Tween-80); 105 % of control under setting [7]; 108 % of control (dose: 300.0 mg/kg/injection, schedule: Q01DX009 (ip), vehicle: saline with Tween-80).

Turning to `CCC(=O)c1cc([N+](=O)[O-])ccc1NC(C)=O`, the T/C by setting is: under setting [1], 101 % of control; under setting [2], 107 % of control; under setting [3], 109 % of control.

As to `O=C(NCCCl)N(c1ccccc1)c1cccc(C(F)(F)F)c1`, the T/C runs as follows: under setting [8], 114 % of control; under setting [9], 105 % of control; under setting [10], 106 % of control.

Consider `NC(CCC(=O)NCC(=O)NCC(=O)O)C(=O)O` (stereo not drawn) (ξγGlu-Gly-Gly-OH), for which the T/C runs as follows: (dose: 50.0 mg/kg/injection, schedule: Q01DX009 (ip), vehicle: saline) 106 % of control; (dose: 100.0 mg/kg/injection, schedule: Q01DX009 (ip), vehicle: saline) 97 % of control; (dose: 200.0 mg/kg/injection, schedule: Q01DX009 (ip), vehicle: saline) 102 % of control; (dose: 400.0 mg/kg/injection, schedule: Q01DX009 (ip), vehicle: saline) 91 % of control.

As for `ClCCN(CCCl)CCN1c2ccccc2Sc2ccccc21`, the T/C by setting is: (dose: 1.56 mg/kg/injection, schedule: Q01DX009 (ip), vehicle: saline with Tween-80) 105 % of control and 122 % of control; (dose: 3.12 mg/kg/injection, schedule: Q04DX003 (ip), vehicle: Klucel (hydroxypropylcellulose) (HPC)) 107 % of control; (dose: 6.25 mg/kg/injection, schedule: Q01DX009 (ip), vehicle: saline with Tween-80) 123 % of control; (dose: 6.25 mg/kg/injection, schedule: Q04DX003 (ip), vehicle: Klucel (hydroxypropylcellulose) (HPC)) 115 % of control.

As for `Cc1ccc(S(=O)(=O)N(CCO)CC(C)O)cc1` (stereo unspecified), the T/C is 105 % of control under setting [8], 94 % of control under setting [9] and 100 % of control under setting [10].

Regarding `Cc1cc(=O)[nH]c2c1C(=O)c1c(C)cc(=O)n(C)c1C2=O`, the T/C is 92 % of control (dose: 0.5 mg/kg/injection, schedule: Q04DX003 (ip), vehicle: Klucel (hydroxypropylcellulose) (HPC)); 102 % of control (dose: 1.25 mg/kg/injection, schedule: Q04DX003 (ip), vehicle: Klucel (hydroxypropylcellulose) (HPC)); 89 % of control (dose: 2.5 mg/kg/injection, schedule: Q04DX003 (ip), vehicle: Klucel (hydroxypropylcellulose) (HPC)).
